Literature values in patent publication US20180221406A1, “THERAPEUTIC COMBINATIONS OF ANTIVIRAL AND ANTI-INFLAMMATORY THERAPIES” (Foresight Biotherapeutics, Inc., priority 2015, published 2018).

Tests used:
[1] = tested on: acute rhinosinusitis principally of viral origin; conditions: in vivo
[2] = tested on: respiratory syncytial virus (RSV); conditions: in vivo

SMILES | Efficacy in uncomplicated acute rhinosinusitis [1] | Efficacy in bronchiolitis caused by RSV [2]
C[C@]12C=CC(=O)C=C1CC[C@@H]1[C@@H]2[C@@H](O)C[C@@]2(C)[C@H]1CC[C@]2(O)C(=O)CO [prednisolone] | ineffective | 
C[C@@H]1C[C@H]2[C@@H]3CCC4=CC(=O)C=C[C@]4(C)[C@@]3(F)[C@@H](O)C[C@]2(C)[C@@]1(O)C(=O)CO [dexamethasone, (8S,9R,10S,11S,13S,14S,16R,17R)-9-fluoro-11,17-dihydroxy-17-(2-hydroxyacetyl)-10,13,16-trimethyl-6,7,8,11,12,14,15,16-octahydrocyclopenta[a]phenanthren-3-one] |  | ineffective
